# Data published in the supplement of paper PMC3493320.
# System: NCI-H295R
# Assay: IC50 (antiproliferative, ATP content)
# Conditions: 48 h
# In short: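 Adrenocortical carcinoma cells in 1536-well plates (1500 per well, serum-free DMEM plus ITS, overnight culture) were exposed for 48 h at 37 °C, 5% CO2 to pin-transferred compounds at 8 final concentrations ranging 0.6 nM to 46 µM. ATP content was then read as CellTiter-Glo luminescence and normalised to vehicle and positive-control wells. The IC50 came from logistic curve fits, and any compound lacking a concentration response was recorded as above the top dose.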
row,SMILES,IC50 [µM]
1,CC(=O)NC(Cc1ccccc1)C(=O)O (centres undefined),> 46
2,COc1ccc(C=CC(=O)OCCC(C)C)cc1,> 46
3,Cl.O=S(=O)(c1cccc2cnccc12)N1CCCNCC1,> 46
4,CCCc1nn(C)c2c(=O)[nH]c(-c3cc(S(=O)(=O)N4CCN(C)CC4)ccc3OCC)nc12.O=C(O)CC(O)(CC(=O)O)C(=O)O,> 46
5,CCC1(CC)C(=O)NC(=O)NC1=O,> 46
6,CCOC(=O)NC(O)C(Cl)(Cl)Cl (centres undefined),> 46
7,COC1CC(=C(c2cccs2)c2cccs2)C[N+](C)(C)C1.[Br-] (centres undefined),> 46
8,Cc1ccc(S(=O)(=O)O)cc1.c1cc2c(c(NC3=NCCN3)c1)CCCC2,> 46
9,C[C@@H]1C[C@H]2[C@@H]3C[C@H](F)C4=CC(=O)C=C[C@]4(C)[C@@]3(F)[C@@H](O)C[C@]2(C)[C@@]1(O)C(=O)CO,> 46
10,CC(C)NC[C@@H](O)COc1ccc(CC(N)=O)cc1,> 46
11,CC(=O)Oc1ccc(C)cc1,> 46
12,CCOP(=O)(OCC)OC(=CCl)c1ccc(Cl)cc1Cl,> 46
13,COc1ccc(Cl)cc1C(=O)NCCc1ccc(S(=O)(=O)NC(=O)NC2CCCCC2)cc1,> 46
14,CC1CCc2cc(F)cc3c(=O)c(C(=O)O)cn1c23 (centres undefined),> 46
15,COP(=S)(OC)Oc1ccc(S(=O)(=O)N(C)C)cc1,> 46
16,COc1ccccc1O,> 46
17,CC(C)NC(C)C,> 46
18,COc1ccc(Cc2nccc3cc(OC)c(OC)cc23)cc1OC.Cl,> 46
19,COC1=CC=C2[C@H]3Cc4ccc(OC)c5c4[C@@]2(CCN3C)[C@H]1O5,> 46

# The next lines start with the values.
row,IC50 [µM],SMILES
1,> 46,O=C(O)c1cc(O)nc(O)n1
2,> 46,CCN(CC)CCOC(=O)c1ccc(N)cc1.Cl
3,> 46,COC(=O)[C@H]1[C@H]2C[C@H]3c4[nH]c5ccccc5c4CCN3C[C@H]2CC[C@@H]1O
4,> 46,CCOC(=O)c1c(N)sc2c1CCN(Cc1ccccc1)C2.Cl
5,> 46,CN1C(=O)C(=NNC(N)=S)c2ccccc21
6,> 46,CCCCCCCC(=O)OCC(O)CO (centres undefined)
7,> 46,COc1ccc2cc1Oc1cc3c(cc1OC)CC[N+](C)(C)[C@H]3Cc1ccc(cc1)Oc1c(OC)c(OC)cc3c1[C@@H](C2)[N+](C)(C)CC3.[I-].[I-]
8,> 46,COc1cc(OC)c(C(=O)CCCN2CCCC2)c(OC)c1.Cl
9,> 46,CCc1c(C)[nH]c2c1C(=O)C(CN1CCOCC1)CC2 (centres undefined)
10,> 46,O=C5O[C@]4(CC5)[C@@]3(C)C[C@@H]6[C@]([C@@]([C@@]([H])3CC4)([H])[C@H]([C@@](OC)=O)C2)(O6)[C@@](C2=C1)(C)CCC1=O
11,> 46,NS(=O)(=O)c1cc2c(cc1Cl)NC(C1CC3C=CC1C3)NS2(=O)=O (centres undefined)
12,> 46,O=C(C)O[C@@H]([C@H]4[N@@+]6(CCCCC6)C)[C@](CC5)(C)[C@](C4)([H])[C@@]3([H])[C@@]5([H])[C@@]2(C)C[C@@H]([C@@H](OC(C)=O)C[C@@]([H])2CC3)N1CCCCC1.[Br-]
13,> 46,CCN(CC)C(=O)Nc1ccc(OCC(O)CNC(C)(C)C)c(C(C)=O)c1.Cl (centres undefined)
14,> 46,CC(C)[C@@H](N)C(=O)O
15,> 46,Cc1cc(C(C)(C)C)cc(C)c1CC1=NCCN1.Cl
16,> 46,CC1CCC(C(C)C)C(OC(=O)c2ccccc2O)C1 (centres undefined)
17,> 46,CCN[C@H]1CN(CCCOC)S(=O)(=O)c2sc(S(N)(=O)=O)cc21
18,> 46,Cc1c(C)c2c(c(C)c1O)CC[C@@](C)(CCC[C@H](C)CCC[C@H](C)CCCC(C)C)O2
19,> 46,NC(CSCC(=O)O)C(=O)O (centres undefined)
20,> 46,N[C@@H](Cc1ccc(O)c(O)c1)C(=O)O
21,> 46,CC(C)NCC(O)c1ccc2ccccc2c1 (centres undefined)
22,> 46,CCN(CCCCOC(=O)c1ccc(OC)c(OC)c1)C(C)Cc1ccc(OC)cc1.Cl (centres undefined)
23,> 46,N=C(N)NC(=O)c1nc(Cl)c(N)nc1N
24,> 46,N#C/C(=C1\SCC(c2ccccc2Cl)S1)n1ccnc1 (centres undefined)
25,> 46,CCCCCCCC(=O)O
